Where two headings read alike, the source gives them in different places.
Assays:
human, male volunteers [1] = test system: human, male volunteers
Method: Two human, male volunteers were selected to pre-trial the DHA material by single daily oral administration. Both were of mature age, not naive to various exogenously supplied androgens, and in good general health. Food and exercise routine was not modified from normal during the testing period, so as to avoid introduction of confounding variables.
Doses were ramped 50 mg weekly, beginning at 50 mg and concluding at 200 mg.
One of the test subjects (Subject #2) took a two week washout after this initial testing regiment and resumed testing at 100 mg, ramping the dose weekly as prior but using 100 mg increments, such that at four weeks of testing the subject was using 400 mg.
After another two week washout period, Subject #2 elected to resume testing of DHA with another related compound, androsterone, at various doses. Over several more months, this DHA/androsterone ratio was altered over a range and maintained at various ratios for not less than five days at a time before modification.

goats = test system: goats
Method: Caprine studies were also performed in two test animals. The test animals selected were monozygous male twins, castrated and placed in separate pens not later than six weeks after birth.
At approximately three months of age, one of these two goats was selected to receive daily DHA in a single, bolus, oral dose. The other goat was not given DHA, and served as the control. All parameters were equalized (pen size, ambient temperature, once daily exercise for 15 minutes on tread mill, 30 minute “play” time with other goats, twice daily ad-lib feeding of identical source feed, etc.)
Dosing was initiated in the test goat at 50 mg. After two weeks, the dose was increased to 100 mg, then after another two weeks increased to 200 mg, then maintained at that dose for an additional four weeks.
At the end of the eight week testing period, the two test animals were weighed to establish gains made from their original base-line weight at the beginning of the study.

human, male volunteers [2] = test system: human, male volunteers; remark: listed apart in the source
Description: Two human, male volunteers were selected to trial the encapsulated DHA material by daily oral administration. They were allowed to select their own serving schedules and serving sizes (within reason of extrapolated values), provided they be consistent and document the compliance of their regimens. Both were of mature age, not naive to various exogenously supplied androgens, and in good general health. Food and exercise routine was not modified from normal during the testing period, so as to avoid introduction of confounding variables.
In particular, Trial Participant #1 was a person who took five capsules a day (100 mg/day DHA) of the composition for sixteen weeks. […] Trial Participant #2 was a person who took four capsules a day (80 mg/day DHA) of the composition for six weeks.

[3] = testosterone as comparative standard; estimated; cited from earlier work
[4] = Trial Participant #2, 80 mg/day DHA, six weeks

## C[C@]12CC[C@H]3[C@@H](CC=C4C[C@H](O)CC[C@@]43C)[C@@H]1CC[C@@H]2O [DHA, 5-Androsten-3a,17b-diol]
human, male volunteers [1]; Subject #2, extended testing, co-administered androsterone over a wide dose range
  androgenic synergism with androsterone: punctuated androgenic synergism
human, male volunteers [1]; both test subjects
  dose dependence of effects: proportional to dose in a fairly linear fashion
  parameters associated with enhanced androgen status (muscle hardness/fullness, strength): distinct improvements
human, male volunteers [1]; both test subjects, acne only noted at the higher doses tested
  side-effects characteristic of exogenous hormones: mild acne being the only undesirable effect
human, male volunteers [1]; both test subjects, one month, oral doses ramped 50 mg weekly from 50 mg to 200 mg
  subjective improvements, as defined by weight, strength, and/or muscle hardness gain: subjective improvements
goats; test goat in play pen with superior goats
  male behavior in castrate male: Alpha-male behavior was indeed noted to be established
goats; test goat versus control
  appetite and food intake: greater appetite and food intake
goats; test goat, eight weeks
  weight gain relative to control goat: approximately double
goats; test goat, eight weeks, from base-line 46 pounds, control 33%
  general weight gain: 59%
goats; test goat, eight weeks, oral 50 mg, then 100 mg, then 200 mg daily, start weight 46 pounds, control 61 pounds
  weight at end of testing: 73 pounds
human, male volunteers [2]; Trial Participant #1, 100 mg/day DHA, sixteen weeks
  weight gained: fifteen
human, male volunteers [2]; Trial Participant #1, 100 mg/day DHA, sixteen weeks, 270 pounds at the beginning
  bench press at the end: 340
human, male volunteers [2]; Trial Participant #1, 100 mg/day DHA, sixteen weeks, 430 pounds at the beginning
  single repetition leg squats at the end: 545 pounds
human, male volunteers [2]; Trial Participant #1, 100 mg/day DHA, sixteen weeks, 455 pounds at the beginning
  deadlift at the end: 560 pounds
human, male volunteers [2]; [4]
  improvement of all major lifting measurements from start to finish: 20-25 pounds
  weight gained: twelve
other
  reported effects of consumer use: increases in strength, lean muscle gains, increased fat loss, appetite increase, libido boost, increased energy, and increased muscle hardness
Consumer use
  reported side effects: slight acne and slight lethargy
[3]
  relative androgenic activity equivalent to that of testosterone: approximately 43%

Reference: patent US10632130B2, “Dehydroandrosterol and methods of using the same” (A[…], LLC, priority 2016, dated 2020)
